Source: patent US9440938B2, “Sulfonamide derivative having PGD2 receptor antagonistic activity” (SHIONOGI & CO., LTD., priority 2005, dated 2016)
Where two headings read alike, the source gives them in different places.

How the values were obtained:
OVA asthma model of rat = assay: Test using OVA asthma model of rat (airway hyperresponsiveness, infiltration of inflammatory cells, mucus-secretion); assay type: in vivo, Brown Norway (BN) Rats; conditions: po, 72 h
Procedure: Test Using OVA Asthma Model of Rat
Brown Norway (BN) Rats were sensitized by i.p. administration of 0.1 mg/mL of ovalbumin (OVA) and 1 mg of aluminum hydroxide gel. A solution of 1% OVA was aerosolized by ultrasonic nebulizer (NE-U17) and the rats were subjected to inhalation exposure of the aerosol for 30 minutes in an exposing chamber 12, 19, 26 and 33 days after the sensitization. One hour before the 4th exposure of the antigen, compounds of the present invention were administered in a dose of 10 mg/kg p.o. once a day for three days consecutively. In a control group, 0.5% of methyl cellulose was administered in place of the compound of the present invention.
Under pentobarbital anesthesia (80 mg/kg, i.p.), acetylcholine (3.9, 7.8, 15.6, 31.3, 62.5, 125, 250 and 500 μg/kg) was injected to jugular vein of the rats successively from a lower dose at intervals of 5 minutes three days after the fourth exposure to the antigen, and immediate contractile reaction of airways (an increase of insufflation pressure) was measured by a modified method of Konnzett & Ririssler. Inhibition rate of airway hyperresponsiveness against the control group was calculated based on area under the curve (AUC) obtained from concentration-response curve of acetylcholine.
After the measurement of increased hyperresponsive airway was completed, bronchoalveoli of the rats were washed with 5 mL of saline three times. Total cell number in the washings was counted by a hemacytometer under light microscope, and inhibition rates of infiltration of inflammatory cells against the control group were calculated. Further, mucin in the airway lavage fluid was measured by ELISA method using jacalin, a mucin-binding lectin, and the inhibition rates of mucus-secretion against the control group were calculated.

DP receptor [1] = molecular target: T1, DP receptor (Homo sapiens, UniProt Q13258); assay: Receptor binding assay, [3H]-PGD2, platelet membrane; conditions: [3H]-PGD2, human platelet membrane
T1 construct: endogenous in cells; host or cells: washed platelets from peripheral blood of a healthy volunteer
T1 sequence (Q13258 1-359): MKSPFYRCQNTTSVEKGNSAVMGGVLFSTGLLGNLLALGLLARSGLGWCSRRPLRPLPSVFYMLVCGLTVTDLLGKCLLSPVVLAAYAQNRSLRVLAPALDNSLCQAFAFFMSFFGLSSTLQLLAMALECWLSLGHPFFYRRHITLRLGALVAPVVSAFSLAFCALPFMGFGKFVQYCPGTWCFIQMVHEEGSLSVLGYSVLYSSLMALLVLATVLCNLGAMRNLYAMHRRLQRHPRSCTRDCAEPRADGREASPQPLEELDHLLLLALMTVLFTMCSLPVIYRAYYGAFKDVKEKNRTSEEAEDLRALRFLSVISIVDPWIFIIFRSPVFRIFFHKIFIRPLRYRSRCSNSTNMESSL
Procedure: 2) Receptor Binding Assay
A prepared WP was homogenated and a membrane fraction was collected with high-speed centrifugation. A compound of the present invention or a reference compound A (No. IC-73 in WO 2003/097598) was added to the plate and [^3H]-PGD2 was also added. A platelet membrane, a protein concentration is 2 mg/mL, was added and mixed in the plate, and placed on ice for 2 hours. The reaction solution was transferred to a low protein-adsorptive filter and washed with a wash solution eight times using a cell harvester. After the final washing, water was removed sufficiently, and scintillator was added. DP inhibitory activity was investigated by measuring [^3H] by using Micro Beta.

DP receptor [2] = molecular target: T1, DP receptor; assay: cAMP assay with washed platelet (DP inhibitory activity in vitro); assay type: cell-based; conditions: washed human platelets, 100 nM PGD2, cAMP by HTRF
Procedure: 1) Preparation of Platelet and a Method of cAMP Assay
30 mL of peripheral blood was collected from a healthy volunteer using a syringe containing one ninth amount of 3.8% sodium citrate. After being centrifuged at 180 g for 10 minutes at room temperature, a supernatant was collected and used as Platelet Rich Plasma (PRP). The resulting PRP was washed with wash buffer and centrifuged three times (Washed Platelet: WP) and platelets were counted by a microcell counter. WP was added to a plate in amount of 1.5×10^8/assay and the plate was treated with 3-isobutyl-1-methylxanthin (IBMX; 0.5 mM) for 5 minutes. A reaction was initiated by adding 100 nM of PGD2 5 min after an addition of a test compound. The reaction was terminated with an addition of 1N hydrochloric acid after 2 minutes and the cells were destructed using 12% triton X-100. An amount of cAMP in the supernatant was assayed by Homogeneous Trangient Fluorescence (HTRF)

[3] = BN rats, 10 mg/kg p.o. once a day for three days, mucin in airway lavage fluid by ELISA against control group, read-out: inhibition rate (%) mucus-secretion
[4] = BN rats, 10 mg/kg p.o. once a day for three days, total cell number in bronchoalveolar washings against control group, read-out: inhibition rate (%) infiltration of inflammatory cells
[5] = read-out: inhibition rate (%) airway hyperresponsiveness
[6] = read-out: IC50 (50% DP-inhibitory concentration in the cAMP assay)

| SMILES | inhibition in vivo at 10 mg/kg (OVA asthma model of rat; [3]) [%] | inhibition in vivo at 10 mg/kg (OVA asthma model of rat; [4]) [%] | inhibition in vivo at 10 mg/kg (OVA asthma model of rat; [5]) [%] | Ki (DP receptor [1]) [nM] | IC50 (DP receptor [2]) [nM] | IC50 (DP receptor [2]; [6]) [nM] |
| --- | --- | --- | --- | --- | --- | --- |
| CC(C)Oc1ccc(S(=O)(=O)N2CCN(c3ccc(-c4ccoc4)c(OCC(=O)O)c3)CC2)cc1 [II-54] | 106 | 39 | 119 | 270 | 420 |  |
| CC(C)Oc1ccc(S(=O)(=O)N2CCN(c3ccc(-c4nccs4)c(OCC(=O)O)c3)CC2)cc1 [II-92] | 44 | 46 | 53 | 580 |  | 360 |
| CC(C)Oc1ccc(S(=O)(=O)N2CCN(c3cc(F)c(F)c(OCC(=O)O)c3)CC2)cc1 [II-16] | 76 | 67 | 131 | 870 |  | 250 |
| CC(C)Oc1ccc(S(=O)(=O)N2CCN(c3ccc([N+](=O)[O-])c(OCC(=O)O)c3)CC2)cc1 [II-13] | 47 | 46 | 99 | 810 |  | 280 |
| CC(C)Sc1ccc(S(=O)(=O)N2CCN(c3ccc(Cl)c(OCC(=O)O)c3)CC2)cc1 [II-35] | 84 | 60 | 88 | 3100 |  | 470 |
| CC(C)Oc1ccc(S(=O)(=O)N2CCN(c3ccc(C#N)c(OCC(=O)O)c3)CC2)cc1 [II-80] | 82 | 57 | 39 | 230 |  | 200 |
| CC(C)Oc1ccc(S(=O)(=O)N2CCN(c3ccc(-c4cocn4)c(OCC(=O)O)c3)CC2)cc1 [II-96] | 52 | 46 | 105 | 330 |  | 290 |
| CC(C)Oc1ccc(S(=O)(=O)N2CCN(c3cc(OCC(=O)O)cc(C(F)(F)F)c3)CC2)cc1 [II-19] | 59 | 51 | 54 | 2000 |  | 1100 |
| CC(C)Oc1ccc(S(=O)(=O)N2CCN(c3cc(Br)cc(OCC(=O)O)c3)CC2)cc1 [II-17] | 49 | 53 | 89 | 570 |  | 230 |
| CC(C)Oc1ccc(S(=O)(=O)N2CCN(c3ccc(Cl)c(OCC(=O)O)c3)CC2)cn1 [II-27] | 118 | 49 | 49 | 1400 |  | 1000 |
| CC(C)Oc1ccc(S(=O)(=O)N2CCN(c3ccc(-c4cnco4)c(OCC(=O)O)c3)CC2)cn1 [II-85] |  |  |  | 1700 | 510 |  |
| CC(C)Oc1ccc(S(=O)(=O)N2CCN(c3ccc4ncn(CC(=O)O)c4c3)CC2)cc1 [II-134] |  |  |  | 8500 |  | 2700 |
| CC(C)Oc1ccc(S(=O)(=O)N2CCN(c3ccc(-c4cnco4)c(OCC(=O)O)c3)CC2)cc1 [II-84] | 56 | 54 | 82 | 330 | 180 |  |
| CC(C)Oc1ccc(S(=O)(=O)N2CCN(c3ccc(C(=O)NCc4cccs4)c(OCC(=O)O)c3)CC2)cc1 [II-99] |  |  |  | 11000 |  | 590 |
| CC(C)Oc1ccc(S(=O)(=O)N2CCN(c3cc(OCC(=O)O)cc(-c4cccs4)c3)CC2)cc1 [II-51] |  |  |  | 520 |  | 640 |
| CC(C)Oc1ccc(S(=O)(=O)N2CCN(c3cc(Cl)cc(OCC(=O)O)c3)CC2)cc1 [II-26] | 121 | 37 | 97 | 630 |  | 430 |

| SMILES | inhibition in vivo at 10 mg/kg (OVA asthma model of rat; [3]) [%] | inhibition in vivo at 10 mg/kg (OVA asthma model of rat; [4]) [%] | inhibition in vivo at 10 mg/kg (OVA asthma model of rat; [5]) [%] | Ki (DP receptor [1]) [nM] | IC50 (DP receptor [2]) [nM] | IC50 (DP receptor [2]; [6]) [nM] |
| --- | --- | --- | --- | --- | --- | --- |
| CC(C)Oc1ccc(S(=O)(=O)N2CCN(c3ccc(Br)c(OCC(=O)O)c3)CC2)cc1 [II-33] | 76 | 57 | 72 | 1900 |  | 300 |
| Cc1cnc(-c2ccc(N3CCN(S(=O)(=O)c4ccc(OC(C)C)cc4)CC3)cc2OCC(=O)O)o1 [II-73] |  |  |  | 1100 |  | 1000 |
| CC(C)Oc1ccc(S(=O)(=O)N2CCN(c3ccc(C(=O)Nc4ccccc4)c(OCC(=O)O)c3)CC2)cc1 [II-62] |  |  |  | 4700 |  | 1100 |
| CC(C)Oc1ccc(S(=O)(=O)N2CCN(c3ccc(C(=O)Nc4nc5ccccc5[nH]4)c(OCC(=O)O)c3)CC2)cc1 [II-101] |  |  |  | 22000 |  | 210 |
| Cc1cc(C(=O)Nc2ccc(N3CCN(S(=O)(=O)c4ccc(OC(C)C)cc4)CC3)cc2OCC(=O)O)no1 [II-60] |  |  |  | 2600 |  | 880 |
| CC[C@@H](C)Oc1ccc(S(=O)(=O)N2CCN(c3ccc(Cl)c(OCC(=O)O)c3)CC2)cc1 [II-29] | 110 | 60 | 89 | 740 |  | 380 |
| CC(C)Oc1ccc(S(=O)(=O)N2CCN(c3ccc(-c4ncco4)c(OCC(=O)O)c3)CC2)cc1 [II-74] |  |  |  | 240 |  | 520 |
| CC(C)Oc1ccc(S(=O)(=O)N2CCN(c3ccc(Cl)c(OCC(=O)O)c3)CC2C)cc1 (centres unmarked) [II-43] | 98 | 33 | 56 | 2300 |  | 740 |
| CC(C)Oc1ccc(S(=O)(=O)N2CCN(c3ccc(C(=O)NCc4ccco4)c(OCC(=O)O)c3)CC2)cc1 [II-106] |  |  |  | 19000 |  | 1600 |
| CCCNC(=O)c1ccc(N2CCN(S(=O)(=O)c3ccc(OC(C)C)cc3)CC2)cc1OCC(=O)O [II-83] |  |  |  | 20000 |  | 2000 |
| CC(C)Oc1ccc(S(=O)(=O)N2CCN(c3ccc(NC(=O)c4ccco4)c(OCC(=O)O)c3)CC2)cc1 [II-24] | 89 | 67 | 77 | 1700 |  | 510 |
| CC(C)Oc1ccc(S(=O)(=O)N2CCN(c3ccc(C(=O)NCC4CC4)c(OCC(=O)O)c3)CC2)cc1 [II-105] |  |  |  | 16000 |  | 1500 |
| CC(C)Oc1ccc(S(=O)(=O)N2CCN(c3ccc(C(=O)Nc4cc(C5CC5)n[nH]4)c(OCC(=O)O)c3)CC2)cc1 [II-112] |  |  |  | 9300 |  | 120 |
| CC(C)Oc1ccc(S(=O)(=O)N2CCN(c3cc(F)cc(OCC(=O)O)c3)CC2)cc1 [II-25] |  |  |  | 1600 |  | 670 |
| CC(C)Oc1ccc(S(=O)(=O)N2CCN(c3cc(OCC(=O)O)cc(-c4ccoc4)c3)CC2)cc1 [II-38] | 71 | 69 | 39 | 250 |  | 650 |
